Results as given in ChEMBL document CHEMBL1201862, “PubChem BioAssay data set” (2004).
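These data come from cells grown in 96-well plates and exposed to compound for 48 hours at five concentrations. GI50 marks 50% less growth.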 Active and inactive are the calls of the source. Cut-off read from the data, not from the text of the source: active = GI50 up to about 1.1 µM and inactive = higher.

Experiments:
Experiment in all cases: NCI anticancer screen, dose series, 48 h
M14 = tested on: M14
MDA-MB-435 = tested on: MDA-MB-435
MCF7 = tested on: MCF7
786-0 = tested on: 786-0
UO-31 = tested on: UO-31
SF-539 = tested on: SF-539
SF-268 = tested on: SF-268
OVCAR-8 = tested on: OVCAR-8
NCI/ADR-RES = tested on: NCI/ADR-RES
BT-549 = tested on: BT-549
SNB-19 = tested on: SNB-19
HOP-62 = tested on: HOP-62
EKVX = tested on: EKVX
HCT-15 = tested on: HCT-15
RXF 393 = tested on: RXF 393
T47D = tested on: T47D
NCI-H226 = tested on: NCI-H226
Malme-3M = tested on: Malme-3M
MDA-N = tested on: MDA-N
DU-145 = tested on: DU-145

**Q.** With `O=C1c2ccccc2C(=O)c2c(NCCCNCCO)ccc(NCCCNCCO)c21` as the compound, how does the GI50 (M14) read?
**A.** 9.68 µM (inactive)

**Q.** And the GI50 (MDA-MB-435)?
**A.** 12.6 µM (inactive)

**Q.** What about the GI50 (MCF7) of the same compound?
**A.** 2.88 µM (inactive)

**Q.** What about the GI50 (786-0) of the same compound?
**A.** 4.79 µM (inactive)

**Q.** What about the GI50 (UO-31) of the same compound?
**A.** 13.1 µM (inactive)

**Q.** What about the GI50 (SF-539) of the same compound?
**A.** 4.24 µM (inactive)

**Q.** What about the GI50 (SF-268) of the same compound?
**A.** 4.82 µM (inactive)

**Q.** What about the GI50 (OVCAR-8) of the same compound?
**A.** 7.74 µM (inactive)

**Q.** And the GI50 (NCI/ADR-RES)?
**A.** 28.5 µM (inactive)

**Q.** What about the GI50 (BT-549) of the same compound?
**A.** 14.5 µM (inactive)

**Q.** And the GI50 (SNB-19)?
**A.** 5.11 µM (inactive)

**Q.** And the GI50 (HOP-62)?
**A.** 5.35 µM (inactive)

**Q.** What about the GI50 (EKVX) of the same compound?
**A.** 11.8 µM (inactive)

**Q.** And the GI50 (HCT-15)?
**A.** 12.9 µM

**Q.** And the GI50 (RXF 393)?
**A.** 4.69 µM (inactive)

**Q.** And the GI50 (T47D)?
**A.** 8.91 µM (inactive)

**Q.** And the GI50 (NCI-H226)?
**A.** 1.61 µM (inactive)

**Q.** What about the GI50 (Malme-3M) of the same compound?
**A.** 13.9 µM (inactive)

**Q.** What about the GI50 (MDA-N) of the same compound?
**A.** 7.48 µM (inactive)

**Q.** What about the GI50 (DU-145) of the same compound?
**A.** 10.2 µM (inactive)

**Q.** For `Cc1ccc(/C=N/Nc2cc(C)c3ccccc3n2)s1`, which GI50 (M14) is on record?
**A.** 13.7 µM (inactive)

**Q.** What about the GI50 (MDA-MB-435) of the same compound?
**A.** 21.2 µM (inactive)

**Q.** And the GI50 (MCF7)?
**A.** 12 µM (inactive)

**Q.** What about the GI50 (786-0) of the same compound?
**A.** 18.7 µM (inactive)

**Q.** What about the GI50 (UO-31) of the same compound?
**A.** > 100 µM (inactive)

**Q.** And the GI50 (SF-539)?
**A.** 21.3 µM (inactive)

**Q.** What about the GI50 (SF-268) of the same compound?
**A.** 26.1 µM (inactive)

**Q.** And the GI50 (OVCAR-8)?
**A.** 23.2 µM (inactive)

**Q.** And the GI50 (NCI/ADR-RES)?
**A.** 11.1 µM (inactive)

**Q.** And the GI50 (BT-549)?
**A.** 21.3 µM (inactive)

**Q.** And the GI50 (SNB-19)?
**A.** 41.6 µM (inactive)

**Q.** What about the GI50 (HOP-62) of the same compound?
**A.** 15.7 µM (inactive)

**Q.** What about the GI50 (EKVX) of the same compound?
**A.** 4.84 µM (inactive)

**Q.** And the GI50 (HCT-15)?
**A.** 7.36 µM

**Q.** What about the GI50 (RXF 393) of the same compound?
**A.** 23.3 µM (inactive)

**Q.** And the GI50 (T47D)?
**A.** 5.48 µM (inactive)

**Q.** And the GI50 (NCI-H226)?
**A.** 14 µM (inactive)

**Q.** What about the GI50 (Malme-3M) of the same compound?
**A.** 5.75 µM (inactive)

**Q.** And the GI50 (MDA-N)?
**A.** 13.8 µM (inactive)

**Q.** What about the GI50 (DU-145) of the same compound?
**A.** > 10 µM (inactive)

**Q.** With `O=c1c(=O)c2cscc2c1=O` as the compound, how does the GI50 (M14) read?
**A.** 4.94 µM (inactive)

**Q.** And the GI50 (MDA-MB-435)?
**A.** 4.65 µM (inactive)

**Q.** And the GI50 (MCF7)?
**A.** 6.24 µM (inactive)

**Q.** What about the GI50 (786-0) of the same compound?
**A.** 5.22 µM (inactive)

**Q.** And the GI50 (UO-31)?
**A.** 4.75 µM (inactive)

**Q.** What about the GI50 (SF-539) of the same compound?
**A.** 4.95 µM (inactive)

**Q.** What about the GI50 (SF-268) of the same compound?
**A.** 4.4 µM (inactive)

**Q.** What about the GI50 (OVCAR-8) of the same compound?
**A.** 6.55 µM (inactive)

**Q.** And the GI50 (NCI/ADR-RES)?
**A.** 8 µM (inactive)

**Q.** And the GI50 (BT-549)?
**A.** 4.85 µM (inactive)

**Q.** And the GI50 (SNB-19)?
**A.** 6.56 µM (inactive)

**Q.** And the GI50 (HOP-62)?
**A.** 5.15 µM (inactive)

**Q.** And the GI50 (EKVX)?
**A.** 5.11 µM (inactive)

**Q.** And the GI50 (HCT-15)?
**A.** 5.78 µM

**Q.** What about the GI50 (RXF 393) of the same compound?
**A.** 4.74 µM (inactive)

**Q.** What about the GI50 (T47D) of the same compound?
**A.** 3.66 µM (inactive)

**Q.** What about the GI50 (NCI-H226) of the same compound?
**A.** 5.55 µM (inactive)

**Q.** And the GI50 (Malme-3M)?
**A.** 4.39 µM (inactive)

**Q.** What about the GI50 (MDA-N) of the same compound?
**A.** 4.99 µM (inactive)

**Q.** And the GI50 (DU-145)?
**A.** 5.33 µM (inactive)

**Q.** For `CC(C)Oc1cccc(N2C(CCc3c[nH]c4ccc(Br)cc34)=NS(=O)(=O)c3cnccc32)c1`, which GI50 (M14) is on record?
**A.** 32.5 µM (inactive)

**Q.** And the GI50 (MDA-MB-435)?
**A.** 46.2 µM (inactive)

**Q.** And the GI50 (MCF7)?
**A.** 21.5 µM (inactive)

**Q.** What about the GI50 (786-0) of the same compound?
**A.** 45 µM (inactive)

**Q.** And the GI50 (UO-31)?
**A.** 3.64 µM (inactive)

**Q.** What about the GI50 (SF-539) of the same compound?
**A.** 75.7 µM (inactive)

**Q.** What about the GI50 (SF-268) of the same compound?
**A.** 69.8 µM (inactive)

**Q.** What about the GI50 (OVCAR-8) of the same compound?
**A.** 51.2 µM (inactive)

**Q.** What about the GI50 (NCI/ADR-RES) of the same compound?
**A.** 44 µM (inactive)

**Q.** What about the GI50 (BT-549) of the same compound?
**A.** 57.4 µM (inactive)

**Q.** And the GI50 (SNB-19)?
**A.** 49.5 µM (inactive)

**Q.** What about the GI50 (HOP-62) of the same compound?
**A.** 94 µM (inactive)

**Q.** What about the GI50 (EKVX) of the same compound?
**A.** 29.2 µM (inactive)

**Q.** And the GI50 (HCT-15)?
**A.** 30.8 µM

**Q.** And the GI50 (RXF 393)?
**A.** 59.8 µM (inactive)

**Q.** What about the GI50 (T47D) of the same compound?
**A.** 21.2 µM (inactive)

**Q.** And the GI50 (NCI-H226)?
**A.** 37.3 µM (inactive)

**Q.** What about the GI50 (Malme-3M) of the same compound?
**A.** 80 µM (inactive)

**Q.** What about the GI50 (MDA-N) of the same compound?
**A.** 37.3 µM (inactive)

**Q.** And the GI50 (DU-145)?
**A.** 94.4 µM (inactive)

**Q.** What does the source list for `CC1CCC2C(C(=O)O[C@H]3C4C=CO[C@@H](OC5OC(CO)C(O)C(O)C5O)C4[C@@]4(CO)O[C@@H]34)=CO[C@@H](OC3OC(CO)C(O)C(O)C3O)C12` (stereo not given in full)?
**A.** GI50 (M14): > 10 µM (inactive); GI50 (MDA-MB-435): > 10 µM (inactive); GI50 (MCF7): > 10 µM (inactive); GI50 (786-0): > 10 µM (inactive); GI50 (UO-31): > 10 µM (inactive); GI50 (SF-539): > 10 µM (inactive); GI50 (SF-268): > 10 µM (inactive); GI50 (OVCAR-8): > 10 µM (inactive); GI50 (NCI/ADR-RES): > 10 µM (inactive); GI50 (BT-549): > 10 µM (inactive); GI50 (SNB-19): > 10 µM (inactive); GI50 (HOP-62): > 10 µM (inactive); GI50 (EKVX): > 10 µM (inactive); GI50 (HCT-15): > 10 µM; GI50 (RXF 393): > 10 µM (inactive); GI50 (T47D): > 10 µM (inactive); GI50 (NCI-H226): > 10 µM (inactive); GI50 (Malme-3M): > 10 µM (inactive); GI50 (MDA-N): > 10 µM (inactive); GI50 (DU-145): > 10 µM (inactive)

**Q.** With `CCOC(=O)C1=C(C)NC(C)=C(C(=O)OCCNC(=O)c2ccc(N=[N+]=[N-])cc2)C1c1ccccc1C(F)(F)F` (stereo not given) [AZIDOPINE] as the compound, how does the GI50 (M14) read?
**A.** 9.98 µM (inactive)

**Q.** And the GI50 (MDA-MB-435)?
**A.** 9.27 µM (inactive)

**Q.** And the GI50 (MCF7)?
**A.** 6.43 µM (inactive)

**Q.** What about the GI50 (786-0) of the same compound?
**A.** 13.3 µM (inactive)

**Q.** And the GI50 (UO-31)?
**A.** 4.79 µM (inactive)

**Q.** And the GI50 (SF-539)?
**A.** 19.1 µM (inactive)

**Q.** What about the GI50 (SF-268) of the same compound?
**A.** 10.3 µM (inactive)

**Q.** And the GI50 (OVCAR-8)?
**A.** 14.8 µM (inactive)

**Q.** And the GI50 (NCI/ADR-RES)?
**A.** 8.28 µM (inactive)

**Q.** And the GI50 (BT-549)?
**A.** 13.9 µM (inactive)

**Q.** And the GI50 (SNB-19)?
**A.** 15.4 µM (inactive)

**Q.** What about the GI50 (HOP-62) of the same compound?
**A.** > 21.5 µM (inactive)

**Q.** What about the GI50 (EKVX) of the same compound?
**A.** 10.7 µM (inactive)

**Q.** And the GI50 (HCT-15)?
**A.** 8.45 µM

**Q.** What about the GI50 (RXF 393) of the same compound?
**A.** 9.57 µM (inactive)

**Q.** What about the GI50 (T47D) of the same compound?
**A.** 8.93 µM (inactive)

**Q.** What about the GI50 (NCI-H226) of the same compound?
**A.** 15 µM (inactive)

**Q.** And the GI50 (Malme-3M)?
**A.** 14 µM (inactive)

**Q.** What about the GI50 (MDA-N) of the same compound?
**A.** 10.2 µM (inactive)

**Q.** And the GI50 (DU-145)?
**A.** 10.5 µM (inactive)
